Consider five compounds from patent publication US7504426B2, “Heterocyclic compounds” (Janssen Pharmaceutica N.V., priority 2003, dated 2009).

The target in assay [1] is T1, human histamine H4 receptor (Homo sapiens, UniProt Q9H3N8). Kind of assay: biochemical.
Assay [2] concerns the target T1, human histamine H4 receptor. Kind of assay: Binding assay on recombinant human histamine H4 receptor (3H-histamine displacement). To be noted: read-out: Binding Assay Ki; repeated in the chemotaxis table.
The next assay has as its system Mast cells. Kind of assay: Mast cell chemotaxis assay (histamine-induced, transwell). Conditions: 10 μM histamine; HR antagonist 1 μM. It is filed as cell-based. Here is the method: Mast Cell Chemotaxis Assay
Mast cell accumulation in mucosal epithelia is a well-known characteristic of allergic rhinitis and asthma. Transwells (Costar, Cambridge, Mass.) of a pore size 8 μm were coated with 100 μL of 100 ng/mL human fibronectin (Sigma) for 2 h at room temperature. […] Mast cells (2×10^5/well) were added to the top chamber. The plates were incubated for 3 h at 37° C. Transwells were removed, and the cells in the bottom chamber were counted for sixty seconds using a flow cytometer.

Another assay has as its system human eosinophils. Kind of assay: Inhibition of histamine-induced eosinophil shape change (GAFS). It is filed as cell-based. Here is the method:
Eosinophil accumulation in sites of allergic reaction is a well-known characteristic of allergic rhinitis and asthma. […] Shape change is a cellular characteristic that precedes eosinophil chemotaxis.
Human granulocytes were isolated from human blood by a Ficoll gradient. The red blood cells were lysed with 5-10X Qiagen lysis buffer at room temperature for 5-7 min. Granulocytes were harvested and washed once with FACS buffer. The cells were resuspended at a density of 2×10^6 cells/mL in reaction buffer. […] Ten minutes later the cells were transferred to ice and fixed with 250 μL of ice-cold fixative buffer (2% formaldehyde) for 1 min.
The change in shape of eosinophils is due to cytoskeletal changes that precede chemotaxis and thus is a measure of chemotaxis.

T1 sequence (Q9H3N8 whole entry): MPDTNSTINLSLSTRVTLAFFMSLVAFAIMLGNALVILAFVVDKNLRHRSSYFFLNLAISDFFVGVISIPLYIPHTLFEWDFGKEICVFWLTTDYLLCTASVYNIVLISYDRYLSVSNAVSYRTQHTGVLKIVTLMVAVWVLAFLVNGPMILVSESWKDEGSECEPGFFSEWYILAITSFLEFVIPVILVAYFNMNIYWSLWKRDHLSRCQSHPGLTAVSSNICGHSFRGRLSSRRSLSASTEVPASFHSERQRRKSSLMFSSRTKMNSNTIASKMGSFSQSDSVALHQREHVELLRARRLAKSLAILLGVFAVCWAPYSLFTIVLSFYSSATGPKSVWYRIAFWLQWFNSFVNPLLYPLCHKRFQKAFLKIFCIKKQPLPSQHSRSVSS

As to `CN1CCN(C(=O)c2nc3cc(Cl)ccc3[nH]2)CC1` [Example 6, (5-Chloro-1H-benzoimidazol-2-yl)-(4-methyl-piperazin-1-yl)-methanone], the Ki in assay [1] and in assay [2] was 25 nM each time.

As for `O=C(c1nc2cc(Cl)ccc2[nH]1)N1CCNCC1` [Example 7, (5-Chloro-1H-benzoimidazol-2-yl)-piperazin-1-yl-methanone], the “% Inh” value with Mast cells was determined as 8%. The inhibition constant Ki in assay [1] and in assay [2] was 87 nM throughout.

`CN1CCN(C(=O)c2nc3cc(F)c(F)cc3[nH]2)CC1` [Example 9, (5,6-Difluoro-1H-benzoimidazol-2-yl)-(4-methyl-piperazin-1-yl)-methanone]: the Ki in assay [1] and in assay [2] was 28 nM in each case.

Take `Cc1ccc2[nH]c(C(=O)NC3CC4CCC(C3)N4C)nc2c1` (stereo not drawn) [Example 25, 5-Methyl-1H-benzoimidazole-2-carboxylic acid (8-methyl-8-aza-bicyclo[3.2.1]oct-3-yl)-amide]: the Ki in assay [1] and in assay [2] was 613 nM in each case.

For `CNC(=C[N+](=O)[O-])NCCSCc1ccc(CN(C)C)o1` [ranatidine], the “Fold Change (eosinophil shape change)” value in the assay on human eosinophils (histamine 0 μM, HR antagonist 10 μM) turned out to be 1.00; in the assay on human eosinophils (histamine 0.01 μM, HR antagonist 10 μM or none), 1.04; with human eosinophils (histamine 0.1 μM, HR antagonist 10 μM or none) it was 1.21; with human eosinophils (histamine 1 μM, HR antagonist 10 μM or none), 1.49; with human eosinophils (histamine 10 μM, HR antagonist 10 μM or none) it was 1.64. In addition, the “effect on histamine-induced shape change” value in the assay on human eosinophils (human eosinophils) is on record as “did not alter the histamine-induced shape change”.
